Earlier results on one compound are cited in patent publication US20200352905A1, “6-(2,4-DICHLOROPHENYL)-5-[4-[(3S)-1-(3-FLUOROPROPYL)PYRROLIDIN-3-YL]OXYPHENYL]-8,9-DIHYDRO-7H-BENZO[7]ANNULENE-2-CARBOXYLIC ACID FOR USE IN METASTATIC OR ADVANCED BREAST CANCER PATIENTS” (SANOFI, priority 2019, published 2020).

SMILES strings stand for the structures.

The test system of series [1] is CYP2C8. As to conditions: substrate dasabuvir; 200 mg QD (3 days) then BID (21 days); cited from earlier work.
Series [2] concerns CYP3A. Conditions: victim Quetiapine; 200 mg TID (26 days); cited from earlier work.

Turning to `NC(=O)N1c2ccccc2C=Cc2ccccc21` [Carbamazepine], the “Max % of AUC decrease or CL increase” value in series [1] is on record as 70.3%. Further, in series [2], the “% of AUC decrease” value is 86.6% and the “% oral CL increase” value was 643.1%.
